In patent publication US11498903B2 (BRISTOL-MYERS SQUIBB COMPANY, priority 2017, dated 2022):
Like-named read-outs stand apart in the source and are kept apart here.

Target: T1, human APJ receptor (Homo sapiens, UniProt P35414)
T1 construct: expressed in transfected cells
T1 sequence (P35414 1-380): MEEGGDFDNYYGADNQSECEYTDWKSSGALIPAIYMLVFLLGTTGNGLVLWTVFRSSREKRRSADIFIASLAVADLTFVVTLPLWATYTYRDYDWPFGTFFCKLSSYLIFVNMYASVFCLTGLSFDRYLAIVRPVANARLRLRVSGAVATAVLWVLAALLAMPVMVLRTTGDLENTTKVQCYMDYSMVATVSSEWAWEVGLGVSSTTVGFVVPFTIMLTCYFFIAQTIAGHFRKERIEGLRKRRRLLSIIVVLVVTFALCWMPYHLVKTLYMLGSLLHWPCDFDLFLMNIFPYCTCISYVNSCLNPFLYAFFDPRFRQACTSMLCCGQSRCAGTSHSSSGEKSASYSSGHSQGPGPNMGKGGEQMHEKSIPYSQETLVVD
Assay: Intracellular cAMP accumulation assay (APJ hcAMP, HTRF)
Assay type: cell-based
Summary of the method: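 Inhibition of 2 μM forskolin-driven cAMP ([…] present) measured by HTRF in 5,000 HEK293 cells/well stably expressing human APJ, 30 min, room temperature. EC50 came from a variable-slope sigmoidal fit; Ymax was relative to (Pyr1)apelin-13 set at 100%.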

[1] = Table 3, HEK293 cells stably expressing human APJ receptor, read-out: APJ cAMP Human EC50
[2] = Table 1, HEK293 cells stably expressing human APJ receptor, inhibition of forskolin-mediated cAMP production, read-out: APJ hcAMP EC50
[3] = human APJ, cAMP, potency range class, read-out: APJ cAMP Human EC50

Row | SMILES | EC50 [1] [nM] | EC50 [2] [nM] | EC50 [3] [nM]
1 | CCC[C@@H](NC(=O)c1ccc(-c2c(C)cccc2-c2nc3ccccc3[nH]2)c(C(=O)O)c1)c1ccccc1 [Example 139, 2′-(1H-1,3-benzodiazol-2-yl)-6′-methyl-4-{[(1R)-1-phenylbutyl]carbamoyl}-[1,1′-biphenyl]-2-carboxylic acid] | < 10 |  | 
2 | CCC[C@@H](NC(=O)c1ccc(-c2c(F)cccc2-c2nc3cc(OC)ccc3[nH]2)c(C(=O)O)c1)c1ccccc1 [Example 143, 2′-fluoro-6′-(5-methoxy-1H-1,3-benzodiazol-2-yl)-4-{[(1R)-1-phenylbutyl]carbamoyl}-[1,1′-biphenyl]-2-carboxylic acid] | < 10 |  | 
3 | CCC[C@@H](NC(=O)c1ccc(-c2c(C)cccc2-c2nc3cc(C(C)(C)C)ccc3[nH]2)c(C(=O)O)c1)c1ccccc1 [Example 144, 2′-(5-tert-butyl-1H-1,3-benzodiazol-2-yl)-6′-methyl-4-{[(1R)-1-phenylbutyl]carbamoyl}-[1,1′-biphenyl]-2-carboxylic acid] | < 10 | < 10 | 
4 | CCC[C@@H](NC(=O)c1ccc(-c2c(C)cccc2-c2nc3c(O)cccc3[nH]2)c(C(=O)O)c1)c1ccccc1 [Example 148, 2′-(4-hydroxy-1H-1,3-benzodiazol-2-yl)-6′-methyl-4-{[(1R)-1-phenylbutyl]carbamoyl}-[1,1′-biphenyl]-2-carboxylic acid] | < 10 | < 10 | 
5 | CCC[C@@H](NC(=O)c1ccc(-c2c(C)cccc2-c2nc3cnccc3[nH]2)c(C(=O)O)c1)c1ccccc1 [Example 149, 2′-{1H-imidazo[4,5-c]pyridin-2-yl}-6′-methyl-4-{[(1R)-1-phenylbutyl]carbamoyl}-[1,1′-biphenyl]-2-carboxylic acid] | < 10 |  | 
6 | CC[C@H](NC(=O)c1ccc(-c2c(Cl)cccc2-c2nc3ccccc3[nH]2)c(C(=O)O)c1)c1ccc(Cl)cc1OC [Example 170, (S)-2′-(1H-1,3-benzodiazol-2-yl)-6′-chloro-4-{[1-(4-chloro-2-methoxyphenyl)propyl]carbamoyl}-[1,1′-biphenyl]-2-carboxylic acid] |  | < 10 | < 10
7 | CCCC(NC(=O)c1ccc(-c2c(Cl)cccc2-c2nc3ccccc3[nH]2)c(C(=O)O)c1)c1ccc(Cl)cc1OC [Example 179, (S)-2′-(1H-1,3-benzodiazol-2-yl)-6′-chloro-4-{[1-(4-chloro-2-methoxyphenyl)butyl]carbamoyl}-[1,1′-biphenyl]-2-carboxylic acid] |  | < 10 | < 10
8 | CCCC(NC(=O)c1ccc(-c2c(Cl)cccc2-c2nc3ccccc3[nH]2)c(C(=O)O)c1)c1ccccn1 [Example 180, (S)-2′-(1H-1,3-benzodiazol-2-yl)-6′-chloro-4-{[1-(pyridin-2-yl)butyl]carbamoyl}-[1,1′-biphenyl]-2-carboxylic acid] |  | < 10 | < 10

Next, values leading:

Row | EC50 [1] [nM] | EC50 [2] [nM] | EC50 [3] [nM] | SMILES
9 | 10 to 100 |  |  | CCC[C@@H](NC(=O)c1ccc(-c2c(Cl)cccc2-c2nc3ccccc3[nH]2)c(-c2n[nH]c(=O)o2)c1)c1ccccc1 [Example 129, 2′-(1H-1,3-benzodiazol-2-yl)-6′-chloro-2-(5-oxo-4,5-dihydro-1,3,4-oxadiazol-2-yl)-N-[(1R)-1-phenylbutyl]-[1,1′-biphenyl]-4-carboxamide]
10 | < 10 |  |  | CCC[C@@H](NC(=O)c1ccc(-c2c(Cl)cccc2-c2nc3cc(OC)c(F)cc3[nH]2)c(-c2n[nH]c(=O)o2)c1)c1ccccc1 [Example 130, 2′-chloro-6′-(6-fluoro-5-methoxy-1H-1,3-benzodiazol-2-yl)-2-(5-oxo-4,5-dihydro-1,3,4-oxadiazol-2-yl)-N-[(1R)-1-phenylbutyl]-[1,1′-biphenyl]-4-carboxamide]
11 | 10 to 100 | 10 to 100 |  | CCC[C@@H](NC(=O)c1ccc(-c2c(C)cccc2-c2nc3ccccc3n2C)c(C(=O)O)c1)c1ccccc1 [Example 137, 2′-methyl-6′-(1-methyl-1H-1,3-benzodiazol-2-yl)-4-{[(1R)-1-phenylbutyl]carbamoyl}-[1,1′-biphenyl]-2-carboxylic acid]
12 | 101 to 500 | 101 to 500 |  | COC[C@@H](NC(=O)c1ccc(-c2cc(Cl)ccc2-c2nc3ccccc3n2C)c(C(=O)O)c1)c1ccccc1 [Example 138, 5′-chloro-4-{[(1S)-2-methoxy-1-phenylethyl]carbamoyl}-2′-(1-methyl-1H-1,3-benzodiazol-2-yl)-[1,1′-biphenyl]-2-carboxylic acid]
13 | < 10 |  |  | CCC[C@@H](NC(=O)c1ccc(-c2c(F)cccc2-c2nc3ccccc3[nH]2)c(C(=O)O)c1)c1ccccc1 [Example 140, 2′-(1H-1,3-benzodiazol-2-yl)-6′-fluoro-4-{[(1R)-1-phenylbutyl]carbamoyl}-[1,1′-biphenyl]-2-carboxylic acid]
14 | < 10 | < 10 |  | CCC[C@@H](NC(=O)c1ccc(-c2c(C)cccc2-c2nc3cc(OC)ccc3[nH]2)c(C(=O)O)c1)c1ccccc1 [Example 142, 2′-(5-methoxy-1H-1,3-benzodiazol-2-yl)-6′-methyl-4-{[(1R)-1-phenylbutyl]carbamoyl}-[1,1′-biphenyl]-2-carboxylic acid]
15 | < 10 | < 10 |  | CCC[C@@H](NC(=O)c1ccc(-c2c(F)cccc2-c2nc3cc(C(C)(C)C)ccc3[nH]2)c(C(=O)O)c1)c1ccccc1 [Example 145, 2′-(5-tert-butyl-1H-1,3-benzodiazol-2-yl)-6′-fluoro-4-{[(1R)-1-phenylbutyl]carbamoyl}-[1,1′-biphenyl]-2-carboxylic acid]
16 | 10 to 100 |  |  | CCCC(CCC)NC(=O)c1ccc(-c2c(Cl)cccc2-c2nc3ccccc3[nH]2)c(C(=O)O)c1 [Example 153, (S)-2′-(1H-1,3-benzodiazol-2-yl)-6′-chloro-4-[(heptan-4-yl)carbamoyl]-[1,1′-biphenyl]-2-carboxylic acid]
17 | < 10 | < 10 |  | CCOCC(NC(=O)c1ccc(-c2c(Cl)cccc2-c2nc3ccccc3[nH]2)c(C(=O)O)c1)c1ccccc1 [Example 157, (S)-2′-(1H-1,3-benzodiazol-2-yl)-6′-chloro-4-{[(1S)-2-ethoxy-1-phenylethyl]carbamoyl}-[1,1′-biphenyl]-2-carboxylic acid]
18 |  | < 10 | < 10 | CCCC(NC(=O)c1ccc(-c2c(Cl)cccc2-c2nc3ccccc3[nH]2)c(C(=O)O)c1)c1cccc(Cl)c1 [Example 167, (S)-2′-(1H-1,3-benzodiazol-2-yl)-6′-chloro-4-{[1-(3-chlorophenyl)butyl]carbamoyl}-[1,1′-biphenyl]-2-carboxylic acid]
19 |  | < 10 | < 10 | CCC[C@H](NC(=O)c1ccc(-c2c(Cl)cccc2-c2nc3ccccc3[nH]2)c(C(=O)O)c1)c1ccccc1F [Example 174, (S)-2′-(1H-1,3-benzodiazol-2-yl)-6′-chloro-4-{[1-(2-fluorophenyl)butyl]carbamoyl}-[1,1-biphenyl]-2-carboxylic acid]
20 |  | < 10 | < 10 | CCC[C@H](NC(=O)c1ccc(-c2c(Cl)cccc2-c2nc3ccccc3[nH]2)c(C(=O)O)c1)c1ccc(Cl)cc1C(F)(F)F [Example 181, (S)-2′-(1H-1,3-benzodiazol-2-yl)-6′-chloro-4-({1-[4-chloro-2-(trifluoromethyl)phenyl]butyl}carbamoyl)-[1,1′-biphenyl]-2-carboxylic acid]
